Test results: patent publication US20240082252A1, “COMPOSITIONS AND METHODS RELATING TO CANCER” (The Penn State Research Foundation, priority 2015, published 2024)

Assays:
UACC 903 melanoma cells = test: Western blotting of treated cells; assay type: cell-based, human; conditions: 1, 3 or 10 μM AZD5363, FIG. 5C; for phosphorylated CDK1 levels: 1 μM MK1775
Procedure: Cell lysates were collected 48-96 hours after siRNA transfection or drug treatment by washing plates with PBS followed by addition of RIPA lysis buffer containing Halt Protease & Phosphatase Inhibitor Cocktail (Thermo Scientific, Rockford, IL, USA). Lysates were centrifuged (10,000×g) for 10 minutes at 4° C. to remove cell debris. Protein concentration was measured using the bicinchoninic acid assay kit (Thermo Scientific, Rockford, IL, USA). 25 μg of respective lysates were loaded onto 4-12% Bis-Tris NuPAGE gels (Life Technologies, Grand Island, NY) and run in an XCell SureLock Mini-Cell gel apparatus (Life Technologies, Grand Island, NY), transferred to polyvinylidene difluoride membranes (PVDF) (Pall Corporation, Port Washington, NY), probed with respective primary antibody followed by horseradish peroxidase-conjugated secondary antibody, and exposed using ECL Western Blotting Substrate (Thermo Scientific, Rockford, IL, USA) or Supersignal West Femto Chemiluminescent Substrate (Thermo Scientific, Rockford, IL, USA). Primary antibodies used: p21 (sc-756), p27 (sc-528), PLK1 (sc-17783), p53 (sc-6243) and ERK2 (sc-1647) from Santa Cruz Biotechnology (Dallas, TX), pAKT (S473 in AKT1, 5474 in AKT2 and 5472 in AKT3, #9271), AKT3 (#3788), Total AKT (#4685), pWEE1 (#4910), WEE1 (#4936), p-CDC2 (Y15) (#9111), p-CDC2 ([…]) (#9114), CDC2 (#9112) CHK1 (#2345), pCHK1 (#2344), pRB ([…]/811) (#9308), pRB ([…]) (#9301), pRB ([…]) (#9307), RB (#9309), FOXM1 (#5436), p-Histone H2AX (S139) (#2577) and Cleaved PARP (#9541) from Cell Signaling (Danvers, MA). Secondary antibodies goat anti-rabbit IgG-HRP (sc-2004) and goat anti-mouse IgG-HRP (sc-2005) were purchased from Santa Cruz Biotechnology, Dallas, TX.

[1] = test system: UACC 903 human melanoma tumors; test: UACC 903 melanoma xenograft, oral drug treatment; assay type: in vivo, athymic-Foxn1^nu nude mice; conditions: MK1775 50 mg/kg, AZD5363 150 mg/kg, oral daily for 18 days; vs vehicle
Procedure: Tumor kinetics studies were undertaken in athymic-Foxn1^nu nude mice (Harlan Laboratories, Indianapolis, IN, USA). In genetic knockdown models, siRNA targeting AKT3 and WEE1 alone or in combination was nucleofected into 1×10^6 UACC 903 or 1205 Lu cells as described above. Cells transfected with scrambled siRNA were used as a control. After plating and allowing the cells to recover for 48 hours, 1×10^6 cells were aliquoted in 0.2 ml of 10% FBS-DMEM and then injected subcutaneously above both the left and right rib cages of 4-6 week old female mice (3-4 mice/group). Dimensions of developing tumors were measured on alternate days, using calipers to estimate size by multiplying length, width and depth in mm^3. For pharmacological synergy studies, 1×10^6 UACC 903 cells were injected subcutaneously above both the left and right rib cages of 4-6 week old female mice. […] Drugs were prepared in 0.5% methylcellulose, 0.5% Tween 80, 5% DMSO and 200 uL administered per oral treatment.
At the end of the study, blood samples were collected from each mouse, serum was separated and levels of various toxicity markers were analyzed. All of the measured biomarkers in samples collected from mice were within the normal range which excludes any toxicity caused by these drugs. […]

C8161.C19 cells = test: cytotoxicity of pharmacological agents alone or combined (CellTiter 96), 48 hours; assay type: cell-based; conditions: for cell viability, single agents: 0.15 μM MK1775, 0.31 to 2.5 μM GDC0068, 1.25 to 10 μM AZD5363, FIG. 3E, 3G
Procedure: (§1) Cytotoxicity of these agents alone or in combination in melanoma cells was measured by plating 2.5 to 5×10^3 cells into 96-well plates followed by growth for 24 to 48 hours in a humidified 37° C. cell culture incubator. […] Control cells were treated with vehicle (DMSO) alone. Cytotoxicity was measured using the CellTiter 96 Aqueous Non-Radioactive Cell Proliferation Assay (Promega). The combined effects of MK1775 and GDC0068 were quantified using CalcuSyn software.

UACC 903 cells [2] = test: RNA sequencing, differentially expressed genes; assay type: cell-based, human; conditions: 24 hours after treatment; intensity difference test p<0.05
Source text: Twenty-four hours following treatment with tested agents, total RNA was extracted from UACC 903 cells using mirVana RNA isolation kit (Life Technologies, Grand Island, NY). Next, using SureSelect Strand Specific RNA Library Preparation kit (Agilent) cDNA libraries were constructed, polyA RNA was purified with oligo (dT) beads and then extracted RNA was processed through fragmentation, reverse transcription, end repair, 3′-end adenylation, adaptor ligation, PCR amplification and SPRI bead purification (Beckman Coulter). For multiplexed high-throughput sequencing, the unique barcode sequences were incorporated. Libraries were then denatured using the Illumina protocol, diluted with pre-chilled hybridization buffer and loaded onto TruSeq SR v3 flow cells on an Illumina HiSeq 2500 (50 cycles, single-read). Sequencing reads were extracted by using Illumina CASAVA pipeline Version 1.8 and aligned to the human reference genome (hg38) using Tophat (version 2.0.9) as described in detail in Trapnell et al, Bioinformatics 2009; 25(9): 1105-11. SeqMonk (version 0.32.0) was used for the identification of differentially expressed genes. Following RNA-Seq quantitation, 75% percentile normalization was performed and significant alterations were determined via intensity difference test with Benjamini and Hochberg multiple testing correction (p-value <0.05). […]

[3] = serum analysis of toxicity markers at end of study; assay type: in vivo, mice; conditions: for CREA / BUN: kidney; for CREA: reference levels 0.1-0.3; for BUN: reference levels 18-33.7; for TBIL / ALB / SGPT (ALT) / ALKP: liver function; for TBIL: reference levels 0.1-0.9; for ALB: reference levels 2.5-4.8; for SGPT (ALT): reference levels 33-132, UACC 903 xenograft mice, oral daily; for ALKP: reference levels 62-209; for GLOB: no reference levels printed; for TP / CHOL / GLU: others; for TP: reference levels 3.6-6.6; for CHOL: reference levels 92-157; for GLU: reference levels 198-247; for AMYL: pancreas, reference levels 1691-3615
Procedure: At the end of the study, blood samples were collected from each mouse, serum was separated and levels of various toxicity markers were analyzed. All of the measured biomarkers in samples collected from mice were within the normal range which excludes any toxicity caused by these drugs. Furthermore, visceral organs such as, heart, lungs, liver, intestine, spleen and kidney from each mouse were also collected, fixed in formalin and embedded in paraffin to assess any toxicity associated abnormality in cell morphology and tissue structure following hematoxylin and eosin staining.

[4] = test system: 1205 Lu melanoma xenografts; test: 1205 Lu melanoma xenograft, oral drug treatment; assay type: in vivo, Athymic-Foxnlnu nude mice; conditions: for reduced growth of 1205 Lu xenograft / tumor development: AZD5363 150 mg/kg, MK1775 50 mg/kg, oral daily for 18 days, vs control, FIG. 4C; for reduced growth of 1205 Lu xenograft tumors: b.i.d.: AZD5363 130 mg/kg 4 days on/3 off, MK1775 30 mg/kg 3 days on/4 off, consecutive dosing in combination, 18 days, FIG. 4E
Procedure: 1205 Lu melanoma xenograft tumors were established by subcutaneous injection of 1×10^6 1205 Lu cells injected above both left and right rib cages of 4-6 week-old female Athymic-Foxnlnu nude mice (Harlan Sprague Dawley). Six days later, when a fully vascularized tumor had formed, mice were randomly divided into treatment groups described below. Body weight in grams and dimensions of developing tumors in mm^3 were measured on alternate days (1-6). Drugs were prepared in 0.5% methylcellulose, 0.5% Tween 80, 5% DMSO and […] administered per oral treatment.
Group 1 (vehicle control, 0.5% methylcellulose, 0.5% Tween 80, 5% DMSO) daily for 18 days;
Group 3 (MK1775, 50 mg/kg) daily for 18 days; and
Group 5 (vehicle control, 0.5% methylcellulose, 0.5% Tween 80, 5% DMSO) b.i.d. (twice a day) for 18 days;
Group 7, (MK1775, 30 mg/kg b.i.d. for 3 days on, 4 days off) for 18 days; and […]

UACC 903 cells [5] = test: cytotoxicity of pharmacological agents alone or combined (CellTiter 96), 48 hours; assay type: cell-based; conditions: Homo sapiens, UACC-903, read-out: reduced cell viability
Procedure: as §1

| Structure (SMILES) | phosphorylated CDK1 levels (UACC 903 melanoma cells) | phosphorylated PRAS40 levels (UACC 903 melanoma cells) | decrease in tumor size / tumor development [1] | cell viability, single agents (C8161.C19 cells) | number of significantly deregulated genes (UACC 903 cells [2]) | CREA [3] | BUN [3] | TBIL [3] | ALB [3] | SGPT (ALT) [3] | ALKP [3] | GLOB [3] | TP [3] | CHOL [3] | GLU [3] | AMYL [3] | reduced growth of 1205 Lu xenograft / tumor development [4] | reduced growth of 1205 Lu xenograft tumors [4] | cytotoxicity at 0.63 µM (UACC 903 cells [5]) | relative single-agent activity (C8161.C19 cells; C8161.C19 cell line) |
| --- | --- | --- | --- | --- | --- | --- | --- | --- | --- | --- | --- | --- | --- | --- | --- | --- | --- | --- | --- | --- |
| NC1(C(=O)N[C@@H](CCO)c2ccc(Cl)cc2)CCN(c2ncnc3[nH]ccc23)CC1 [AZD5363] | reduced the phosphorylation of CDK1 in a dose-dependent manner | dose-dependently decreased phosphorylated PRAS40 levels | 36% | reduced cell viability | 64 genes | 0.1 ± 0^ mg/dL | 25.8 ± 2.2 mg/dL | 0.5 ± 0.1 mg/dL | 2.5 g/dL | 41.3 ± 7.4 u/L | 86.3 ± 7.5 u/L | 2.6 ± 0.1 g/dL | 5.1 ± 0.1 g/dL | 113.5 ± 7.6 mg/dL | 214 ± 30.6 mg/dL | 1891 ± 129.7 U/L | ~50% | ~30% | – | – |
| CC(C)NC[C@@H](C(=O)N1CCN(c2ncnc3c2[C@H](C)C[C@H]3O)CC1)c1ccc(Cl)cc1 [GDC0068, ipatasertib] | – | – | – | reduced cell viability | – | – | – | – | – | – | – | – | – | – | – | – | – | – | – | – |
| C=CCn1c(=O)c2cnc(Nc3ccc(N4CCN(C)CC4)cc3)nc2n1-c1cccc(C(C)(C)O)n1 [MK1775, 2-allyl-1-(6-(2-hydroxypropan-2-yl)pyridin-2-yl)-6-((4-(4-methylpiperazin-1-yl)phenyl)amino)-1H-pyrazolo[3,4-d]pyrimidin-3(2H)-one] | decreased phosphorylated CDK1 levels | – | ineffective | reduced cell viability | 94 genes | 0.1 ± 0 mg/dL | 25.3 ± 1.9 mg/dL | 0.6 ± 0 mg/dL | 0.0026 ± 0.0001 g/dL | 55 ± 10.1 u/L | 75 ± 5.6 u/L | 2.6 ± 0 g/dL | 5.2 ± 0.1 g/dL | 142.5 ± 4.6 mg/dL | 237.5 ± 31.4 mg/dL | 2251.8 ± 50.2 U/L | ~50% | ~30% | 35 to 40% | significantly more effective |
